“And” between values parts separate entries of the source, which are not always exact repeats. Equal values may be shown once. Toxic doses and inconclusive results are not listed.
Test system: P388 leukemia ip, CD2F1 mice, survival T/C
Assay: NCI In Vivo Anticancer Drug Screen. Data for tumor model P388 Leukemia (intraperitoneal) in CD2F1 (CDF1) mice
Conditions: endpoint: median survival time, higher = longer survival
How it was run: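 Mice carrying the transplanted tumor received test compound or vehicle. Survival was recorded in each group, and the value is the treated-group measurement divided by that of the vehicle-treated control group.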

[1] = dose: 12.5 mg/kg/injection, schedule: Q01DX009 (ip), vehicle: saline with Tween-80
[2] = dose: 25.0 mg/kg/injection, schedule: Q01DX009 (ip), vehicle: saline with Tween-80
[3] = dose: 50.0 mg/kg/injection, schedule: Q01DX009 (ip), vehicle: saline
[4] = dose: 50.0 mg/kg/injection, schedule: Q01DX005 (ip), vehicle: Klucel (hydroxypropylcellulose) (HPC)
[5] = dose: 100.0 mg/kg/injection, schedule: Q01DX005 (ip), vehicle: Klucel (hydroxypropylcellulose) (HPC)
[6] = dose: 200.0 mg/kg/injection, schedule: Q01DX005 (ip), vehicle: Klucel (hydroxypropylcellulose) (HPC)
[7] = dose: 50.0 mg/kg/injection, schedule: Q01DX009 (ip), vehicle: Klucel (hydroxypropylcellulose) (HPC)
[8] = dose: 100.0 mg/kg/injection, schedule: Q01DX009 (ip), vehicle: Klucel (hydroxypropylcellulose) (HPC)
[9] = dose: 200.0 mg/kg/injection, schedule: Q01DX009 (ip), vehicle: Klucel (hydroxypropylcellulose) (HPC)
[10] = dose: 50.0 mg/kg/injection, schedule: Q01DX009 (ip), vehicle: saline with Tween-80
[11] = dose: 200.0 mg/kg/injection, schedule: Q01DX009 (ip), vehicle: saline with Tween-80
[12] = dose: 60.0 mg/kg/injection, schedule: Q01DX005 (ip), vehicle: saline with Tween-80
[13] = dose: 120.0 mg/kg/injection, schedule: Q01DX005 (ip), vehicle: saline with Tween-80
[14] = dose: 240.0 mg/kg/injection, schedule: Q01DX005 (ip), vehicle: saline with Tween-80
[15] = dose: 50.0 mg/kg/injection, schedule: Q01DX005 (ip), vehicle: saline with Tween-80
[16] = dose: 100.0 mg/kg/injection, schedule: Q01DX005 (ip), vehicle: saline with Tween-80
[17] = dose: 200.0 mg/kg/injection, schedule: Q01DX005 (ip), vehicle: saline with Tween-80

## CCCCCCC(/C=C/c1ccc(Cl)c(Cl)c1)=N\NC(=O)C[N+](C)(C)C
[1]
  T/C: 100 % of control
[2]
  T/C: 103 % of control
[3]
  T/C: 98 % of control

## CNC(=O)OCCC(OC(=O)NC)C1CCC2C3CC=C4CC(O)CCC4(C)C3CCC12C (stereo unspecified)
[4]
  T/C: 100 % of control
[5]
  T/C: 102 % of control
[6]
  T/C: 97 % of control

## Cc1cc(C)cc(N(C2=NCCS2)C2=NCCS2)c1
dose: 25.0 mg/kg/injection, schedule: Q01DX009 (ip), vehicle: Klucel (hydroxypropylcellulose) (HPC)
  T/C: 106 % of control
[7]
  T/C: 101 % of control
[8]
  T/C: 99 % of control
[9]
  T/C: 104 % of control

## c1nc(Sc2ncnc3nc[nH]c23)c2[nH]cnc2n1
dose: 180.0 mg/kg/injection, schedule: Q01DX009 (ip), vehicle: Klucel (hydroxypropylcellulose) (HPC)
  T/C: 100 % of control
dose: 266.0 mg/kg/injection, schedule: Q01DX009 (ip), vehicle: Klucel (hydroxypropylcellulose) (HPC)
  T/C: 100 % of control
dose: 400.0 mg/kg/injection, schedule: Q01DX009 (ip), vehicle: Klucel (hydroxypropylcellulose) (HPC)
  T/C: 100 % of control

## Clc1ccccc1N/N=c1\nnc2c(Cl)cccc2s1
dose: 50.0 mg/kg/injection, schedule: Q04DX002 (ip), vehicle: saline with Tween-80
  T/C: 95 % of control
dose: 100.0 mg/kg/injection, schedule: Q04DX002 (ip), vehicle: saline with Tween-80
  T/C: 94 % of control
dose: 200.0 mg/kg/injection, schedule: Q04DX002 (ip), vehicle: saline with Tween-80
  T/C: 91 % of control

## CC(C)C1=C(O)C2=C(C(=O)C1=O)C1(C)CCCC(C)(C)C1CC2O (stereo unspecified)
[2]
  T/C: 100 % of control
[10]
  T/C: 104 % of control
[11]
  T/C: 108 % of control

## COC(=O)c1nc(N)nc(C(=O)OC)c1C(=O)Cc1ccccc1
[12]
  T/C: 100 % of control
[13]
  T/C: 103 % of control

## C(CCC1CO1)CC1CO1 (stereo unspecified)
dose: 100.0 mg/kg/injection, schedule: Q04DX002 (ip), vehicle: Klucel (hydroxypropylcellulose) (HPC)
  T/C: 122 % of control

## CCc1ccccc1NC(=O)C(=O)CC(=O)C1=C(C)Nc2ccccc2S1
[12]
  T/C: 90 % of control
[13]
  T/C: 96 % of control
[14]
  T/C: 99 % of control

## OC(C(=S)N1CCOCC1)(c1ccccc1)c1ccccc1
[7]
  T/C: 105 % of control
[8]
  T/C: 103 % of control
[9]
  T/C: 98 % of control

## O/N=C(/CN1CCOCC1)c1ccccc1
[7]
  T/C: 105 % of control
[8]
  T/C: 100 % of control
[9]
  T/C: 102 % of control

## Brc1ccc(C[N+]23CCN(CC2)CC3)cc1
[1]
  T/C: 95 % of control
[2]
  T/C: 90 % of control
[10]
  T/C: 90 % of control

## CCCCOCN(COCCCC)CC(C)(C)C
[10]
  T/C: 107 % of control
dose: 100.0 mg/kg/injection, schedule: Q01DX009 (ip), vehicle: saline with Tween-80
  T/C: 105 % of control
[11]
  T/C: 109 % of control

## O=S(=O)(Cc1ccccc1)C(c1ccccc1)S(=O)(=O)Cc1ccccc1
[7]
  T/C: 96 % of control
[8]
  T/C: 91 % of control
[9]
  T/C: 100 % of control

## C(=C\c1ccnc2c1ccc1ccccc12)/c1ccccc1
dose: 12.5 mg/kg/injection, schedule: Q01DX005 (ip), vehicle: saline with Tween-80
  T/C: 96 % of control
dose: 25.0 mg/kg/injection, schedule: Q01DX005 (ip), vehicle: saline with Tween-80
  T/C: 96 % of control
[15]
  T/C: 90 % of control
[16]
  T/C: 88 % of control
[17]
  T/C: 88 % of control

## COc1cc([C@@H]2c3cc(O)c(OC)cc3C[C@H]3C(=O)OC[C@@H]23)ccc1O
[4]
  T/C: 96 % of control
[5]
  T/C: 96 % of control
[6]
  T/C: 100 % of control

## Cc1cc(=O)oc2cc(NC(=O)C(CCCN=C(N)N)NC(=O)OCc3ccccc3)ccc12 (stereo unspecified)
[15]
  T/C: 97 % of control
[16]
  T/C: 98 % of control
[17]
  T/C: 94 % of control

## COc1ccc(OC(N)=O)c2ccccc12
dose: 25.0 mg/kg/injection, schedule: Q01DX001 (ip), vehicle: Klucel (hydroxypropylcellulose) (HPC)
  T/C: 100 % of control
dose: 50.0 mg/kg/injection, schedule: Q01DX001 (ip), vehicle: Klucel (hydroxypropylcellulose) (HPC)
  T/C: 100 % of control
dose: 100.0 mg/kg/injection, schedule: Q01DX001 (ip), vehicle: Klucel (hydroxypropylcellulose) (HPC)
  T/C: 108 % of control

## CC(C)(C)/[N+]([O-])=C/C(c1ccccc1)C(/C=[N+](/[O-])C(C)(C)C)c1ccccc1 (stereo unspecified)
[12]
  T/C: 100 % of control
[13]
  T/C: 98 % of control
[14]
  T/C: 98 % of control

## O=c1cc(C(F)(F)F)c2cc3c4c(c2o1)CCCN4CCC3
[4]
  T/C: 106 % of control
[5]
  T/C: 100 % of control
[6]
  T/C: 99 % of control

## CCC1=C[C@H]2CN(CCc3c([nH]c4ccccc34)[C@@](C(=O)OC)(c3cc4c(cc3OC)N(C)[C@H]3[C@@](O)(C(=O)NCCSC)[C@H](O)[C@]5(CC)C=CCN6CC[C@]43[C@@H]65)C2)C1
dose: 0.5 mg/kg/injection, schedule: Q01DX001 (ip), vehicle: water
  T/C: 117 % of control
dose: 2.0 mg/kg/injection, schedule: Q01DX001 (ip), vehicle: water
  T/C: 118 % of control
dose: 16.0 mg/kg/injection, schedule: Q01DX001 (ip), vehicle: water
  T/C: 154 % of control and 168 % of control
dose: 32.0 mg/kg/injection, schedule: Q01DX001 (ip), vehicle: water
  T/C: 191 % of control

## N#CSCc1ccccc1
dose: 3.13 mg/kg/injection, schedule: Q01DX009 (ip), vehicle: saline
  T/C: 100 % of control
dose: 6.25 mg/kg/injection, schedule: Q01DX009 (ip), vehicle: saline
  T/C: 105 % of control
dose: 12.5 mg/kg/injection, schedule: Q01DX009 (ip), vehicle: saline
  T/C: 104 % of control

## COc1ccc(/C(C)=N/OC(=O)c2sc3ccccc3c2Cl)cc1CN1CCOCC1
[3]
  T/C: 93 % of control
dose: 100.0 mg/kg/injection, schedule: Q01DX009 (ip), vehicle: saline
  T/C: 97 % of control
dose: 200.0 mg/kg/injection, schedule: Q01DX009 (ip), vehicle: saline
  T/C: 100 % of control

## C1OC1CO[C@H]1CO[C@H]2[C@@H]1OC[C@@H]2OCC1CO1 (stereo partly specified)
dose: 600.0 mg/kg/injection, schedule: Q04DX003 (ip), vehicle: saline
  T/C: 172 % of control

## CC(C)(NC(=O)OCc1ccccc1)C(=O)n1cc(CC(C(=O)OCc2ccccc2)n2cnc3ccccc3c2=O)c2ccccc21 (stereo unspecified)
dose: 8.75 mg/kg/injection, schedule: Q01DX005 (ip), vehicle: Klucel (hydroxypropylcellulose) (HPC)
  T/C: 96 % of control
dose: 17.5 mg/kg/injection, schedule: Q01DX005 (ip), vehicle: Klucel (hydroxypropylcellulose) (HPC)
  T/C: 100 % of control
dose: 35.0 mg/kg/injection, schedule: Q01DX005 (ip), vehicle: Klucel (hydroxypropylcellulose) (HPC)
  T/C: 99 % of control

## CCCCC1CCCCCCc2[nH]c(/C=C3\N=C(c4ccc[nH]4)C=C3OC)cc21 (stereo unspecified)
dose: 0.12 mg/kg/injection, schedule: Q01DX009 (ip), vehicle: saline with Tween-80
  T/C: 109 % of control and 116 % of control
dose: 0.25 mg/kg/injection, schedule: Q01DX009 (ip), vehicle: saline with Tween-80
  T/C: 110 % of control and 119 % of control
dose: 0.5 mg/kg/injection, schedule: Q01DX009 (ip), vehicle: saline with Tween-80
  T/C: 115 % of control and 123 % of control
dose: 1.0 mg/kg/injection, schedule: Q01DX009 (ip), vehicle: saline with Tween-80
  T/C: 111 % of control and 90 % of control

## Cc1cc(-c2ccccc2)[s+]s1
dose: 12.5 mg/kg/injection, schedule: Q01DX009 (ip), vehicle: distilled water + Tween-80
  T/C: 101 % of control
dose: 25.0 mg/kg/injection, schedule: Q01DX009 (ip), vehicle: distilled water + Tween-80
  T/C: 115 % of control
dose: 50.0 mg/kg/injection, schedule: Q01DX009 (ip), vehicle: distilled water + Tween-80
  T/C: 117 % of control
dose: 100.0 mg/kg/injection, schedule: Q01DX009 (ip), vehicle: distilled water + Tween-80
  T/C: 111 % of control
dose: 200.0 mg/kg/injection, schedule: Q01DX009 (ip), vehicle: distilled water + Tween-80
  T/C: 117 % of control

## C1CCC(N2CSC3CCCCC32)CC1 (stereo unspecified)
dose: 60.0 mg/kg/injection, schedule: Q01DX005 (ip), vehicle: Klucel (hydroxypropylcellulose) (HPC)
  T/C: 95 % of control
dose: 120.0 mg/kg/injection, schedule: Q01DX005 (ip), vehicle: Klucel (hydroxypropylcellulose) (HPC)
  T/C: 97 % of control

## Clc1ccc(/C=C/c2ccccn2)cc1
[15]
  T/C: 91 % of control
[16]
  T/C: 90 % of control
[17]
  T/C: 91 % of control

## NCC(N)Cn1ccnc1 (stereo unspecified)
dose: 50.0 mg/kg/injection, schedule: Q04DX003 (ip), vehicle: saline
  T/C: 93 % of control
dose: 100.0 mg/kg/injection, schedule: Q04DX003 (ip), vehicle: saline
  T/C: 94 % of control
dose: 200.0 mg/kg/injection, schedule: Q04DX003 (ip), vehicle: saline
  T/C: 95 % of control
